Holding throughout (type): cell-based, murine
The target in one assay is Ba/F3 EGFR Wild-type (Homo sapiens, UniProt P00533). Nature of the assay: CellTiter-Glo cell viability, Ba/F3 EGFR wild-type cells. The following applies: 72 hours, read-out: Ba/F3 EGFR mutant cell (IC50, nM) WT. In outline:
(§1)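 IC50s come from CellTiter-Glo ATP luminescence after 72 h of compound exposure (0, 0.3 up to 2000 nM, 10 concentrations). Ba/F3 lines carried wild-type or mutant EGFR and were plated at 2500 cells/well one day before treatment.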

The target in assay [1] is Ba/F3 EGFR L858R/T790M/C797S mutants (Homo sapiens, UniProt P00533, T790M/C797S/L858R, cells depend on it). Nature of the assay: CellTiter-Glo cell viability, Ba/F3 EGFR L858R/T790M/C797S cells. The conditions noted are these: 72 hours, read-out: Ba/F3 EGFR mutant cell (IC50, nM) L/T/C. The essentials: as §1
Sequence of Ba/F3 EGFR L858R/T790M/C797S mutants (P00533 whole entry T790M/C797S/L858R): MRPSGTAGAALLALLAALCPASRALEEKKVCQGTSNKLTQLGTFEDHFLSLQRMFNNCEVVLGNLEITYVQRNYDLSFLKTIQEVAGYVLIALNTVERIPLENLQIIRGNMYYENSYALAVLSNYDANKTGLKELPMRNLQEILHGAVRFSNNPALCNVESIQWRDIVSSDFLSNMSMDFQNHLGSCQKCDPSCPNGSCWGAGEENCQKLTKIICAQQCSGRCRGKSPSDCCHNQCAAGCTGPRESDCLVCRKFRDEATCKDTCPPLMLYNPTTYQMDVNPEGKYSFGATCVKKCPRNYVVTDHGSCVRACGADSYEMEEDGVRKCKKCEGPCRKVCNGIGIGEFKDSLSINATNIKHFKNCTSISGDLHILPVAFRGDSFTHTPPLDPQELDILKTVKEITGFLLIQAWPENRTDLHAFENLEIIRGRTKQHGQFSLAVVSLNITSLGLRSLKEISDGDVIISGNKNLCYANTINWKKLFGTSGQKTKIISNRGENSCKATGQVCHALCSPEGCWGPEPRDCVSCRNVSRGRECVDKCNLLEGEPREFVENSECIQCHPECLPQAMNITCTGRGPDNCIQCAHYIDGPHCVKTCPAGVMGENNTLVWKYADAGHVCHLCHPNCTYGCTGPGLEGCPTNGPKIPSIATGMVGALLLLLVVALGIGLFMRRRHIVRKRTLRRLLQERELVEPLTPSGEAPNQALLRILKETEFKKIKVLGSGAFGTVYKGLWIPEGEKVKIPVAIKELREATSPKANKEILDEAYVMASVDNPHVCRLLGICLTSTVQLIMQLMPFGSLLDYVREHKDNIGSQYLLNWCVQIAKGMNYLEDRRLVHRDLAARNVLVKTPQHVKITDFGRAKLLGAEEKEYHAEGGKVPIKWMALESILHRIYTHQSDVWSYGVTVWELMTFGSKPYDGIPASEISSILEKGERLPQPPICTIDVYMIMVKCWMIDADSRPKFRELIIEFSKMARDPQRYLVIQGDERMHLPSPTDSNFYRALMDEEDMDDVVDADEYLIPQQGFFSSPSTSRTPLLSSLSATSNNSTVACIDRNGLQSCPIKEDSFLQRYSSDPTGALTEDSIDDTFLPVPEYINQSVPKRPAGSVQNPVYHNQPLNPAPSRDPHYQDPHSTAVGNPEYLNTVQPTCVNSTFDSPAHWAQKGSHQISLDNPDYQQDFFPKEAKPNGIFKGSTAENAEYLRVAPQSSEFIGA
(In ATP-based viability assays light output follows the ATP content of the culture.)

The target in assay [2] is Ba/F3 EGFR Del19/T790M/C797S mutants (Homo sapiens, UniProt P00533, T790M/C797S, cells depend on it, form not given). The assay is described as follows: CellTiter-Glo cell viability, Ba/F3 EGFR Del19/T790M/C797S cells. The conditions noted are these: 72 hours, read-out: Ba/F3 EGFR mutant cell (IC50, nM) D/T/C. The essentials: as §1
The target in assay [3] is Ba/F3 EGFR Del19/T790M mutants (Homo sapiens, UniProt P00533, T790M, cells depend on it, form not given). Nature of the assay: CellTiter-Glo cell viability, Ba/F3 EGFR Del19/T790M cells. The conditions noted are these: 72 hours, read-out: Ba/F3 EGFR mutant cell (IC50, nM) D/T. The essentials: as §1
Sequence of Ba/F3 EGFR Del19/T790M mutants (P00533 with tags, fused parts or gaps DEL746-750/T790M, form open): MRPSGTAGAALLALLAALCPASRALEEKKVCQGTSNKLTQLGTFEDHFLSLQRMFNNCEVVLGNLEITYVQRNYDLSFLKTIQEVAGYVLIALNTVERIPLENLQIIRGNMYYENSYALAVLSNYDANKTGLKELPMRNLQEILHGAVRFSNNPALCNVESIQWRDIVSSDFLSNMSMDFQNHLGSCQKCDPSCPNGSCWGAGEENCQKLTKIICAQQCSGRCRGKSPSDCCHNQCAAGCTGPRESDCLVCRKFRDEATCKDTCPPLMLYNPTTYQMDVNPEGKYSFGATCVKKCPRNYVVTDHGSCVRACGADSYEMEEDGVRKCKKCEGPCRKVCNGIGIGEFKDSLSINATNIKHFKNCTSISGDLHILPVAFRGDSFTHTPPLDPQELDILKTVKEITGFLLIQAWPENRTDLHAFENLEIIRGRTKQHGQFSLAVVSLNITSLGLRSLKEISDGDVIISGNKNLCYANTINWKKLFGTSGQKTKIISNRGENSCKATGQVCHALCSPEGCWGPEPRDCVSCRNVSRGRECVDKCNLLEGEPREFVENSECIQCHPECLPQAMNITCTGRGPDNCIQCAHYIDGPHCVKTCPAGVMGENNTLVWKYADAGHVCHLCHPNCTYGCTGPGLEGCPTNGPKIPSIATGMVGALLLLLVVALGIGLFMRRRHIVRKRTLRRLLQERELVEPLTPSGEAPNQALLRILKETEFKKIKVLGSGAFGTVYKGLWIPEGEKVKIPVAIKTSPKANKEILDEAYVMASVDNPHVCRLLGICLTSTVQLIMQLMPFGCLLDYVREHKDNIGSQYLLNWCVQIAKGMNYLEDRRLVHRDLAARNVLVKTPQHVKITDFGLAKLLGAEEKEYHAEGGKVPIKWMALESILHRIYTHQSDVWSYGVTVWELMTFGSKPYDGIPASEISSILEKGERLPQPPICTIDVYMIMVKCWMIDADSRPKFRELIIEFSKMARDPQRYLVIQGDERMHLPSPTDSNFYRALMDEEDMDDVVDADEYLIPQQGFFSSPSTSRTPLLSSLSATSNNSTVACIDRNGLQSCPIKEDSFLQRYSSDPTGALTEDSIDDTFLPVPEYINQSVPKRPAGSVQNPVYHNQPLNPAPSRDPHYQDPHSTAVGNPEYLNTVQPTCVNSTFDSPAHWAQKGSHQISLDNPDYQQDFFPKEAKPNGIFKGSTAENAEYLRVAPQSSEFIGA
The target in assay [4] is Ba/F3 EGFR Del19/C797S mutants (Homo sapiens, UniProt P00533, C797S, cells depend on it, form not given). The assay is described as follows: CellTiter-Glo cell viability, Ba/F3 EGFR Del19/C797S cells. The following applies: 72 hours, read-out: Ba/F3 EGFR mutant cell (IC50, nM) D/C. In outline: as §1
Sequence of Ba/F3 EGFR Del19/C797S mutants (P00533 with tags, fused parts or gaps DEL746-750/C797S, form open): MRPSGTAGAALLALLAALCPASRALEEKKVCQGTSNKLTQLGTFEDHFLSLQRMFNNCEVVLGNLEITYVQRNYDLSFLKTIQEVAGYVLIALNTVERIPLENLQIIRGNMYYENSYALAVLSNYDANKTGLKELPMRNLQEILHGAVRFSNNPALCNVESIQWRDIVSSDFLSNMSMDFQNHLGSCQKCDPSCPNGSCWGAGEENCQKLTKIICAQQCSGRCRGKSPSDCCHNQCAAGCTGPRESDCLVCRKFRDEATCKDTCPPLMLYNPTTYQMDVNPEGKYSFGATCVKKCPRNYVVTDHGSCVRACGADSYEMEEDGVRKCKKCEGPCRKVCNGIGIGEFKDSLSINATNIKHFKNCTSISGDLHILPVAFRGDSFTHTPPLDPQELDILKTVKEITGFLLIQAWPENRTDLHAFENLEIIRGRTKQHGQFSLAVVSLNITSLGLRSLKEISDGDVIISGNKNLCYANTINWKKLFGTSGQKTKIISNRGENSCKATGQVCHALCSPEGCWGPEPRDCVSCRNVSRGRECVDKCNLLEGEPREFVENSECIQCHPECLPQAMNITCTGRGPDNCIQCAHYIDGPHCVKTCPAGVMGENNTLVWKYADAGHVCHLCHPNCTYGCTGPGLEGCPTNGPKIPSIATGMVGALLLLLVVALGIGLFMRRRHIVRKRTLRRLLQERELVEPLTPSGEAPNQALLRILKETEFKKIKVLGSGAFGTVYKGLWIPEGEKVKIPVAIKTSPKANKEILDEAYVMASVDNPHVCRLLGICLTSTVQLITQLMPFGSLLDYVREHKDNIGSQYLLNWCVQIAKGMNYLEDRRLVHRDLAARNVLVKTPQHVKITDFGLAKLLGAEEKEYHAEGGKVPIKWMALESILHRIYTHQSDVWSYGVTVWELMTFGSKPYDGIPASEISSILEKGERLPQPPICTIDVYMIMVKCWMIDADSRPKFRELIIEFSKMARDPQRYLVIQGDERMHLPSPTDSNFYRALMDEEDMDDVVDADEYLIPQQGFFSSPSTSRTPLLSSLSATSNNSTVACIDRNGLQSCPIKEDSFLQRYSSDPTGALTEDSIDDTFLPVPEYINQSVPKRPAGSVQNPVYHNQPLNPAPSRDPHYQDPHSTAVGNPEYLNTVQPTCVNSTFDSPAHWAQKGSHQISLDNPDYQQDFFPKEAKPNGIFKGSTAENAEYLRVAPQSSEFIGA
Assay [5] addresses Ba/F3 EGFR L858R/C797S mutants (Homo sapiens, UniProt P00533, C797S/L858R, cells depend on it). Nature of the assay: CellTiter-Glo cell viability, Ba/F3 EGFR L858R/C797S cells. The conditions noted are these: 72 hours, read-out: Ba/F3 EGFR mutant cell (IC50, nM) L/C. The essentials:
as §1

Sequence of Ba/F3 EGFR L858R/C797S mutants (P00533 whole entry C797S/L858R): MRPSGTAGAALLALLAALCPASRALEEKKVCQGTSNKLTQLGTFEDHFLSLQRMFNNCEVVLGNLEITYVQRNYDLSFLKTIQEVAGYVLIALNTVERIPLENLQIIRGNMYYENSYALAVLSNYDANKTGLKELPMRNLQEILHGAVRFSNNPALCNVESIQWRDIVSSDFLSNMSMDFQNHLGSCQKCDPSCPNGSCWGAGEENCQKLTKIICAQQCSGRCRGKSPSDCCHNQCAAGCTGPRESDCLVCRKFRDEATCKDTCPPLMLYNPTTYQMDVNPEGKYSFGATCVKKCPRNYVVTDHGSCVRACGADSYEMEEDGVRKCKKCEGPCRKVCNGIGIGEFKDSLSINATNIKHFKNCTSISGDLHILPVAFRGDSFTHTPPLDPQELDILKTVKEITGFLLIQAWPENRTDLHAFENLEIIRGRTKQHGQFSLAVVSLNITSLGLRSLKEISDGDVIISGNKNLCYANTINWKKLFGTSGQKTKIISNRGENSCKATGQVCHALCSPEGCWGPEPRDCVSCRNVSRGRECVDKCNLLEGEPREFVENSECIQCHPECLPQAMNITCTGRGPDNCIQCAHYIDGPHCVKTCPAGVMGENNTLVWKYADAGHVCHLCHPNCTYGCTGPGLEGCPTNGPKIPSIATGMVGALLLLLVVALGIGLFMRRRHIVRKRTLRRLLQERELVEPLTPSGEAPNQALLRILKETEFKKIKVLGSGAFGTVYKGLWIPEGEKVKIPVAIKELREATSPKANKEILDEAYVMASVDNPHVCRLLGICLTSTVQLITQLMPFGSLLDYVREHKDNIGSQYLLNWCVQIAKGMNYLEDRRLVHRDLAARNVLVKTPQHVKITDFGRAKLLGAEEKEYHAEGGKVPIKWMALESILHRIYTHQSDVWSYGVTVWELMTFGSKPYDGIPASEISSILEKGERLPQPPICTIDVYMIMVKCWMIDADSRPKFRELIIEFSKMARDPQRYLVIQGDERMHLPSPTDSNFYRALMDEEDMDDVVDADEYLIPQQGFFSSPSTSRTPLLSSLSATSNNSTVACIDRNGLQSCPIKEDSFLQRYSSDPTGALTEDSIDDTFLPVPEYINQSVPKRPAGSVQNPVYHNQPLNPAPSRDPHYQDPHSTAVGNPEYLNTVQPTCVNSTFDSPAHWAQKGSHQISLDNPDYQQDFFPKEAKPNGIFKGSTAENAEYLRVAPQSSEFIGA

On to `COc1cc(N2CCC(N3CCN(C)CC3)CC2)c(C)cc1Nc1ncc(Br)c(Nc2cccc(OC)c2NS(C)(=O)=O)n1` [Example C1, N-(2-((5-bromo-2-((2-methoxy-5-methyl-4-(4-(4-methylpiperazin-1-yl)piperidin-1-yl)phenyl)amino)pyrimidin-4-yl)amino)-6-methoxyphenyl)methanesulfonamide], for which the GI50 at Ba/F3 EGFR Wild-type was determined as 408 nM; in assay [1], 12 nM; in assay [2], 13 nM; in assay [3], 6 nM; in assay [4], 18 nM; in assay [5], 63 nM.
Consider `COc1ccc(Nc2nc(Nc3cc(C)c(N4CCC(N5CCN(C)CC5)CC4)cc3OC)ncc2Br)c(NS(C)(=O)=O)c1` [Example C2, N-(2-((5-bromo-2-((2-methoxy-5-methyl-4-(4-(4-methylpiperazin-1-yl)piperidin-1-yl)phenyl)amino)pyrimidin-4-yl)amino)-5-methoxyphenyl)methanesulfonamide], for which the GI50 is 385 nM on Ba/F3 EGFR Wild-type; 18 nM in assay [1]; 9 nM in assay [2]; 3 nM in assay [3]; 13 nM in assay [4]; 32 nM in assay [5].
As for `COc1cc(N2CCC(N(C)C)CC2)c(C)cc1Nc1ncc(Br)c(Nc2cccc(OC)c2NS(C)(=O)=O)n1` [Example C3, N-(2-((5-bromo-2-((4-(4-(dimethylamino)piperidin-1-yl)-2-methoxy-5-methylphenyl)amino)pyrimidin-4-yl)amino)-6-methoxyphenyl)methanesulfonamide], the GI50 on Ba/F3 EGFR Wild-type amounted to 288 nM; in assay [1] it was 23 nM; in assay [2], 92 nM; in assay [3], 17 nM; in assay [4] it was 60 nM; in assay [5], 113 nM.
Take `COc1ccc(Nc2nc(Nc3cc(C)c(N4CCC(N(C)C)CC4)cc3OC)ncc2Cl)c(NS(C)(=O)=O)c1` [Example C4, N-(2-((5-chloro-2-((4-(4-(dimethylamino)piperidin-1-yl)-2-methoxy-5-methylphenyl)amino)pyrimidin-4-yl)amino)-5-methoxyphenyl)methanesulfonamide]: the GI50 stood at 263 nM at Ba/F3 EGFR Wild-type; 38 nM in assay [1]; 132 nM in assay [2]; 30 nM in assay [3]; 31 nM in assay [4]; 91 nM in assay [5].
For `COc1cc(N2CCC(N(C)C)CC2)c(C)cc1Nc1ncc(Br)c(Nc2cccc(OC)c2N(C)S(C)(=O)=O)n1` [Example C5, N-(2-((5-bromo-2-((4-(4-(dimethylamino)piperidin-1-yl)-2-methoxy-5-methylphenyl)amino)pyrimidin-4-yl)amino)-6-methoxyphenyl)-N-methylmethanesulfonamide], the GI50 on Ba/F3 EGFR Wild-type is 545 nM; in assay [1], 94 nM; in assay [2] it was 34 nM; in assay [3], 17 nM; in assay [4], 19 nM; in assay [5], 91 nM.
Consider `COc1cc(N2CCNCC2)ccc1Nc1ncc(Cl)c(Nc2cccc(OC)c2NS(C)(=O)=O)n1` [Example C6, N-(2-((5-chloro-2-((2-methoxy-4-(piperazin-1-yl)phenyl)amino)pyrimidin-4-yl)amino)-6-methoxyphenyl)methanesulfonamide], for which the GI50 was 626 nM at Ba/F3 EGFR Wild-type; 596 nM in assay [1]; 222 nM in assay [2]; 268 nM in assay [3]; 106 nM in assay [4]; 305 nM in assay [5].
In the case of `CCc1cc(Nc2ncc(Br)c(Nc3cccc(OC)c3N(C)S(C)(=O)=O)n2)c(OC)cc1N1CCC(N2CCN(C)CC2)CC1` [Example C7, N-(2-((5-bromo-2-((5-ethyl-2-methoxy-4-(4-(4-methylpiperazin-1-yl)piperidin-1-yl)phenyl)amino)pyrimidin-4-yl)amino)-6-methoxyphenyl)-N-methylmethane sulfonamide], the GI50 on Ba/F3 EGFR Wild-type was 534 nM; in assay [1], 24 nM; in assay [2] it was 10 nM; in assay [3] it was 6 nM; in assay [4], 10 nM; in assay [5] it was 52 nM.
Regarding `COc1cc(N2CCC(N3CCN(C)CC3)CC2)ccc1Nc1ncc(Cl)c(Nc2ccc3scnc3c2NS(C)(=O)=O)n1` [Example C8, N-(5-((5-chloro-2-((2-methoxy-4-(4-(4-methylpiperazin-1-yl)piperidin-1-yl)phenyl)amino)pyrimidin-4-yl)amino)benzo[d]thiazol-4-yl)methanesulfonamide], the GI50 on Ba/F3 EGFR Wild-type came out at 804 nM; in assay [1] it was 308 nM; in assay [2] it was 170 nM; in assay [3] it was 94 nM; in assay [4], 210 nM; in assay [5] it was 316 nM.
Consider `COc1cc(N2CCC(N3CCN(C)CC3)CC2)ccc1Nc1ncc(Cl)c(Nc2ccc3c(c2NS(C)(=O)=O)OCCO3)n1` [Example C9, N-(6-((5-chloro-2-((2-methoxy-4-(4-(4-methylpiperazin-1-yl)piperidin-1-yl)phenyl)amino)pyrimidin-4-yl)amino)-2,3-dihydrobenzo[b][1,4]dioxin-5-yl)methanesulfonamide], for which the GI50 on Ba/F3 EGFR Wild-type is 755 nM; in assay [1], 356 nM; in assay [2], 260 nM; in assay [3], 152 nM; in assay [4] it was 281 nM; in assay [5], 345 nM.
As to `COc1cc(N2CCC(N3CCCC3)CC2)c(C)cc1Nc1ncc(Cl)c(Nc2cccc(OC)c2NS(C)(=O)=O)n1` [Example C10, N-(2-((5-chloro-2-((2-methoxy-5-methyl-4-(4-(pyrrolidin-1-yl)piperidin-1-yl)phenyl)amino)pyrimidin-4-yl)amino)-6-methoxyphenyl)methanesulfonamide], the GI50 at Ba/F3 EGFR Wild-type is 404 nM; in assay [1], 45 nM; in assay [2], 9 nM; in assay [3], 6 nM; in assay [4] it was 9 nM; in assay [5] it was 61 nM.
Turning to `COc1ccc(Nc2nc(Nc3cc(C)c(N4CCC(N5CCCC5)CC4)cc3OC)ncc2Cl)c(NS(C)(=O)=O)c1` [Example C11, N-(2-((5-chloro-2-((2-methoxy-5-methyl-4-(4-(pyrrolidin-1-yl)piperidin-1-yl)phenyl)amino)pyrimidin-4-yl)amino)-5-methoxyphenyl)methanesulfonamide], the GI50 on Ba/F3 EGFR Wild-type was 458 nM; in assay [1] it was 39 nM; in assay [2], 9 nM; in assay [3], 5 nM; in assay [4], 6 nM; in assay [5], 45 nM.
On to `CCCc1cc(Nc2ncc(Cl)c(Nc3ccc(OC)cc3NS(C)(=O)=O)n2)c(OC)cc1N1CCC(N(C)C)CC1` [Example C12, N-(2-((5-chloro-2-((4-(4-(dimethylamino)piperidin-1-yl)-2-methoxy-5-propylphenyl)amino)pyrimidin-4-yl)amino)-5-methoxyphenyl)methanesulfonamide], for which the GI50 on Ba/F3 EGFR Wild-type worked out at 731 nM; in assay [1], 29 nM; in assay [2], 9 nM; in assay [3], 8 nM; in assay [4], 6 nM; in assay [5], 28 nM.
